Experimental data: ChEMBL document CHEMBL1201862, “PubChem BioAssay data set” (2004)
Active and inactive are the calls of the source. No stated cut-off is given here; in the data, actives have a measured EC50 and inactives only a lower limit.

Test system: not listed separately
Test: inhibitors of firefly luciferase expression or activity, dose response, H4 neuroglioma cells, luminescence (AID 1990)
Type: functional, cell-based
Details: not given

Q: For `CCOc1ccccc1NC(=O)CSc1nnc(-c2ccco2)n1Cc1ccco1`, which EC50 is on record?
A: > 120 µM (not active)

Q: For `CCOc1ccc(C(=O)Nc2ccc3nc(N4CCN(CC)CC4)cc(C)c3c2)cc1`, which EC50 is on record?
A: 10.3 µM (active)

Q: For `CCCCCn1c(=O)c(C(=O)Nc2ccccn2)c(O)c2ccccc21`, which EC50 is on record?
A: > 120 µM (not active)

Q: Which EC50 does the source give for `Cc1onc(-c2ccccc2)c1C(=O)N1CCN(S(=O)(=O)c2ccc(Cl)cc2)CC1` here?
A: > 120 µM (not active)

Q: With `Cc1c(CCC(=O)N[C@@H](C)C(=O)O)c(=O)oc2cc3oc4c(c3cc12)CCCC4` as the compound, how does the EC50 read?
A: 12.7 µM (active)

Q: Which EC50 does the source give for `CCOC(=O)Cn1nnc2c(sc3nc4c(c(-c5ccccc5)c32)CCC4)c1=O` here?
A: > 120 µM (not active)

Q: For `CCOC(=O)c1c(C)[nH]c(C(=O)Nc2ccc(NC(C)=O)cc2)c1C`, which EC50 is on record?
A: 10.9 µM (active)

Q: For `CC(C)CCNc1nc(N)c([N+](=O)[O-])c(NCC2CCCO2)n1` (stereo unspecified), which EC50 is on record?
A: 12 µM (active)

Q: Which EC50 does the source give for `CCCc1[nH]nc2c1/C(=N/O)CC(c1ccccc1)C2` (stereo unspecified) here?
A: 12.8 µM (active)

Test system: not listed separately
Test: Luminescence Cell-Based Dose Response HTS to Identify Activators of Luciferase Translation or Activity in H4 […] Cells. [Related pubchem assays: 1829 (Project Summary), 1814 (Primary HTS)]
Type: functional
Details: not given

Q: Which EC50 does the source give for `CC1CC1C(=O)OCc1cc(=O)n2cc(Br)ccc2n1` (stereo unspecified) here?
A: 0.102 µM (active)

Q: For `N=C(NOC(=O)c1cccc(F)c1)c1ccccc1`, which EC50 is on record?
A: > 120 µM (not active)

Q: Which EC50 does the source give for `CC(Oc1ccccc1)C(=O)NC1=NCCS1` (stereo unspecified) here?
A: 94.2 µM (active)

Test system: not listed separately
Test: Luminescence Cell-Based Dose Response HTS to Identify Inhibitors of 5'UTR Stem-Loop Driven Prion Protein mRNA Translation in H4 Neuroglioblastoma Cells. [Related pubchem assays: 1827 (Project Summary), 1813 (Primary HTS)]
Type: functional
Details: not given

Q: Which EC50 does the source give for `CCOc1ccccc1NC(=O)CSc1nnc(-c2ccco2)n1Cc1ccco1` here?
A: > 120 µM (not active)

Q: Which EC50 does the source give for `CCOc1ccc(C(=O)Nc2ccc3nc(N4CCN(CC)CC4)cc(C)c3c2)cc1` here?
A: > 120 µM (not active)

Q: Which EC50 does the source give for `CCCCCn1c(=O)c(C(=O)Nc2ccccn2)c(O)c2ccccc21` here?
A: 11.2 µM (active)

Q: Which EC50 does the source give for `Cc1onc(-c2ccccc2)c1C(=O)N1CCN(S(=O)(=O)c2ccc(Cl)cc2)CC1` here?
A: > 120 µM (not active)

Q: Which EC50 does the source give for `Cc1c(CCC(=O)N[C@@H](C)C(=O)O)c(=O)oc2cc3oc4c(c3cc12)CCCC4` here?
A: 17 µM (active)

Q: Which EC50 does the source give for `CCOC(=O)Cn1nnc2c(sc3nc4c(c(-c5ccccc5)c32)CCC4)c1=O` here?
A: 3.88 µM (active)

Q: With `CCOC(=O)c1c(C)[nH]c(C(=O)Nc2ccc(NC(C)=O)cc2)c1C` as the compound, how does the EC50 read?
A: 3.99 µM (active)

Q: With `CC(C)CCNc1nc(N)c([N+](=O)[O-])c(NCC2CCCO2)n1` (stereo unspecified) as the compound, how does the EC50 read?
A: > 120 µM (not active)

Q: For `CCCc1[nH]nc2c1/C(=N/O)CC(c1ccccc1)C2` (stereo unspecified), which EC50 is on record?
A: > 120 µM (not active)

Test system: H4
Test: Luminescence Cell-Based Dose Response HTS to Identify Activators of 5'UTR Stem-Loop Driven Prion Protein mRNA Translation in H4 Neuroglioblastoma Cells. [Related pubchem assays: 1829 (Project Summary), 1814 (Primary HTS)]
Type: functional
Details: Homo sapiens

Q: For `CC1CC1C(=O)OCc1cc(=O)n2cc(Br)ccc2n1` (stereo unspecified), which EC50 is on record?
A: > 120 µM (not active)

Q: With `N#Cc1ccsc1NC(=O)COC(=O)c1ccc2ccccc2c1` as the compound, how does the EC50 read?
A: 17.5 µM (active)

Q: For `CC(Oc1ccccc1)C(=O)NC1=NCCS1` (stereo unspecified), which EC50 is on record?
A: 18.9 µM (active)

Molecular target: T1, Heat shock factor protein 1 (Mus musculus, UniProt P38532)
T1 sequence (P38532 whole entry): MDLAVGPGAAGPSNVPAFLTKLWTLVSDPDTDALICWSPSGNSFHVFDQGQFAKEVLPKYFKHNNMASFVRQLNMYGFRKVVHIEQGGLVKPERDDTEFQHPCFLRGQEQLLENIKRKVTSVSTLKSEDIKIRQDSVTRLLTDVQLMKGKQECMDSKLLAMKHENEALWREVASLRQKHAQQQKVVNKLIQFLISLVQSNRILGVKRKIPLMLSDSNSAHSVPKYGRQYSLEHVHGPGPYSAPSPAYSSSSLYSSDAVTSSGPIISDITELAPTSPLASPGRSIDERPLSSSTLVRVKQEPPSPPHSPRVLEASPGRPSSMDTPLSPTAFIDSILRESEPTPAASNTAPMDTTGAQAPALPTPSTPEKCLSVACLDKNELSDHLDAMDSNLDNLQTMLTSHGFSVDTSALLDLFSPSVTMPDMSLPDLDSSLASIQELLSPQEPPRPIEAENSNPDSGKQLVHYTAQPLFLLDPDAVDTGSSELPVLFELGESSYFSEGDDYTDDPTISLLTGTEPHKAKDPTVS
Test: inhibition of MG132-induced HSE-luciferase signal, confirmation, cell-based, NIH3T3, luminescence, dose retest (AID 2382);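 further: NIH3T3 fibroblasts with HSF1-driven luciferase reporter stressed by proteasome inhibitor MG132; luminescence from HSF1-driven luciferase expression after 8 hours of MG132 stress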
Type: functional
Details: not given

Q: Which EC50 does the source give for `O=[N+]([O-])c1ccccc1CCc1cnc(Cl)s1` here?
A: > 195 µM (not active)

Q: Which EC50 does the source give for `CN1CCN(CC(=O)Nc2nnc(-c3cccs3)s2)CC1` here?
A: > 195 µM (not active)

Q: With `Cc1ccc(-c2ccc(=O)n(CCC(=O)NCCN3CCCCC3C)n2)cc1` (stereo unspecified) as the compound, how does the EC50 read?
A: > 195 µM (not active)

Q: For `CCOC(=O)Cn1c(CCC(=O)O)ccc1-c1ccc(F)cc1`, which EC50 is on record?
A: > 195 µM (not active)

Q: For `Cc1ccc(N2C(=O)c3ccccc3C2Nc2ccccc2F)nc1` (stereo unspecified), which EC50 is on record?
A: > 195 µM (not active)

Q: With `CCCCCn1c(=O)c(C(=O)Nc2ccccn2)c(O)c2ccccc21` as the compound, how does the EC50 read?
A: > 195 µM (not active)

Q: With `CC(C)(C)C(=O)N1CCN(CCN2C(=O)c3cccc4cccc(c34)C2=O)CC1` as the compound, how does the EC50 read?
A: > 195 µM (not active)

Q: For `COc1ccc(S(=O)(=O)NCC2CCCN(Cc3ccc(C)o3)C2)cc1` (stereo unspecified), which EC50 is on record?
A: > 195 µM (not active)

Q: Which EC50 does the source give for `CC(C)CN(C(=O)CCCSc1nc2ccccc2[nH]1)c1c(N)n(Cc2ccccc2)c(=O)[nH]c1=O` here?
A: > 195 µM (not active)

Q: Which EC50 does the source give for `CCOc1ccccc1C(=O)Nc1ccc(NC(=O)c2ccccc2)cc1` here?
A: > 195 µM (not active)

Q: Which EC50 does the source give for `COc1ccc2c(c1OC)C(=O)OC2Nc1ccc(S(=O)(=O)N=C(N)N)cc1` (stereo unspecified) here?
A: > 195 µM (not active)

Q: For `Cc1ccc(NC(=O)CN2C(=O)NC3(CCCC3)C2=O)c(Cl)c1`, which EC50 is on record?
A: > 195 µM (not active)

Q: With `CC(=O)N/N=C(\C)CC(=O)NC(C)(C)C` as the compound, how does the EC50 read?
A: > 195 µM (not active)

Test system: not listed separately
Test: inhibitors of SNCA 5'UTR-driven reporter translation, confirmation, H4 neuroglioma cells, luminescence (AID 1988)
Type: functional, cell-based
Details: not given

Q: With `CCOc1ccccc1NC(=O)CSc1nnc(-c2ccco2)n1Cc1ccco1` as the compound, how does the EC50 read?
A: > 120 µM (not active)

Q: Which EC50 does the source give for `CCOc1ccc(C(=O)Nc2ccc3nc(N4CCN(CC)CC4)cc(C)c3c2)cc1` here?
A: > 120 µM (not active)

Q: For `CCCCCn1c(=O)c(C(=O)Nc2ccccn2)c(O)c2ccccc21`, which EC50 is on record?
A: 9.51 µM (active)

Q: Which EC50 does the source give for `Cc1onc(-c2ccccc2)c1C(=O)N1CCN(S(=O)(=O)c2ccc(Cl)cc2)CC1` here?
A: > 120 µM (not active)

Q: Which EC50 does the source give for `Cc1c(CCC(=O)N[C@@H](C)C(=O)O)c(=O)oc2cc3oc4c(c3cc12)CCCC4` here?
A: 14.4 µM (active)

Q: For `CCOC(=O)Cn1nnc2c(sc3nc4c(c(-c5ccccc5)c32)CCC4)c1=O`, which EC50 is on record?
A: > 120 µM (not active)

Q: With `CCOC(=O)c1c(C)[nH]c(C(=O)Nc2ccc(NC(C)=O)cc2)c1C` as the compound, how does the EC50 read?
A: 10.9 µM (active)

Q: Which EC50 does the source give for `CC(C)CCNc1nc(N)c([N+](=O)[O-])c(NCC2CCCO2)n1` (stereo unspecified) here?
A: > 120 µM (not active)

Q: Which EC50 does the source give for `CCCc1[nH]nc2c1/C(=N/O)CC(c1ccccc1)C2` (stereo unspecified) here?
A: 13.4 µM (active)
